Measurements reported in patent US8030042B2, “Polyamino acid synthetase and gene encoding the same” (JNC Corporation, priority 2007, dated 2011).
In brackets after ≈: the same amount, converted by molar mass.

B1: ε-poly-L-lysine biosynthetic enzyme: membrane-bound ε-poly-L-lysine biosynthetic enzyme (NRPS) from Streptomyces albulus strain IFO14147, amino acid sequence SEQ ID NO: 2 (protein, listed as Streptomyces albulus)
chain: MSSPLLESSFEPSEPAPQQALYRTAGNPAPRTLLDVLDATAAAHPQAIALDTGSEALTYRDLCIEIERRARQLRDRGIGPGDRVGVRVPSGTAELYLSILAVLRSGAAYVPVDADDPDERAATVFREAAVCAVLGPDGPLPGPARPLGDPRSAGPQDDAWIIFTSGSTGAPKGVAVSHRSAAAFVDAEADLFCQDQPLGPGDRVLAGLSVAFDASCEEMWLAWRYGACLVPAPRALVRAGHELGPWLVERGITVVSTVPTLAALWPDEAMRRVRLLIVGGESCPAGLVDRFAGPGREMWNTYGPTETTVVACAARLLPGEPVRIGLPLKGWQLAVVDRTGQPVPFGAEGELLISGVGTARYLDPAKDAERFRPDDALGAARVYRTGDLVRAEPEGLLFVGRADDQIKLGGRRIELGEIDAALAALPGVRGAAAAVQTTPAGTQVLVGYVVPEQRTADGSSFQQDKARALLQERLPAQLVPVLAEVESLPTRTSGKVDRKALPWPLPSAPVDSATGDPATALDGTAARLAGIWEELLGVRPGPDSDFVSLGGTSLVAARMASQLRIHHPGVSVADLYRHPVLRDMAEHLDSLGGPVDEVRPVRPVPRRTGFVQLLVQTGLYGIAGLRGLVGLALADNVLGLLAPQVWAPHTAWWLIIVGWVVLYSAPMRCALGALAARALAGTIKPGAYPRGGATHLRLWTAERVVAAFGVPSLLGTPWTRLYARSLGCATGRNVALHTMPPVTGLAELGDGCSVEPEADISGWWLDGDTLHIGAVRIGAGARVAHRSMLMPGAVVGQGAELASGACLDGEIPDGASWSGSPARPAGAAERMAGAAWPAPAWQRSRRWSAAYGLTLLGLSLLALLSTAPALVGAYFLLRDSGTLATAGLRLLLAVPVFTLLTTGCSLLVTAAVVRLLGRGITPGLHPASGGVAWRAWLVTRLLDGARGSLFPLYASLGTPHWLRLLGAKVGRHAEISTVLPLPSLLHVEDGAFLADDTLVAPFELRGGWLRLGTVRIGRRAFVGNSGIVDPGHDVPDHSLVGVLSNAPADGEPGSSWLGRPAMPLPRVATQADPARTFAPPRRLVRARAAVELCRVLPLMCGLALAEGVFLTEQDAFAQGGLGLAALVGAPLLLASGLVALLVTTLAKWLLVGRFTVSEHPLWSSFVWRNELYDTFVESLAVPSMAGAFTGTPVLNWWLRTLGAKIGRGVWLESYWLPETDLITVADGVSVNRGCVLQTHLFHDRIMRLDTVRLAEGSSLGPHGIVLPGTEVGARASIAPSSLVMRGESVPAHTRWAGNPIAGERPARPVPARAEGGAAA

The molecules below were run on ε-poly-L-lysine biosynthetic enzyme (assay: Enzymatic production of heteropolyamino acid from lysine analog and L-lysine (ESI-LC-MS)). Details: 2 mM substrate, L-lysine and analog mixed; 25° C., 4 hours; FIG. 9.
Assay type: biochemical, Streptomyces albulus strain IFO14147
Protocol: A reaction solution (200 μl) containing 2 mM substrate amino acid (L-lysine and analog were mixed in a given ratio), 5 mM MgCl2, 5 mM ATP, 1 mM DTT, 20% glycerol, 0.2% (w/v) NP-40, 100 mM TAPS-NaOH buffer solution (pH 8.5) and about 10 μg of the purified enzyme preparation was put into a 1.5 ml microtube, and it was incubated at 25° C. 4 hours later, polyamino acid produced in a manner similar to that in Example 1 was subjected to ESI-LC-MS analysis.

Question: How did the “Analog taken into the polylysine molecule by the enzyme (heteropolyamino acid)” value turn out when `NCC(O)CCC(N)C(=O)O` (racemic) [DL-5-hydroxylysine] was run?
Answer: taken into the polylysine molecule

Question: For `NCCOC[C@H](N)C(=O)O` [O-(2-aminoethyl)-L-serine], which “Analog taken into the polylysine molecule by the enzyme (heteropolyamino acid)” value is on record?
Answer: taken into the polylysine molecule

Question: Which “Analog taken into the polylysine molecule by the enzyme (heteropolyamino acid)” value does the source give for `NCCSC[C@H](N)C(=O)O` [S-(2-aminoethyl)-L-cysteine] here?
Answer: taken into the polylysine molecule

These molecules were tested on ε-poly-L-lysine biosynthetic enzyme (assay: ε-poly-L-lysine biosynthesis activity (L-[U-14C]lysine taken into ε-poly-L-lysine)). Details: 5 mM Mg^2+, 5 mM Mn^2+; no concentration given for Ca^2+.
Assay type: biochemical, Streptomyces albulus strain IFO14147
Protocol: The measurement of the ε-poly-L-lysine biosynthesis activity was performed according to the method of Kawai et al. (Biochem Biophys Res Commun. 2003 Nov. 21; 311 (3): 635-40) with some modification. A reaction solution (40 μl), which includes: 1 mM L-lysine containing 92.5 kBq/ml L-[U-14C]lysine (Amersham Biosciences); 5 mM MgCl2; 5 mM ATP; 1 mM DTT; 20% (w/v) glycerol; 0.2% (w/v) NP-40; 100 mM TAPS-NaOH buffer solution (pH 8.5); and the enzyme, was incubated at 30° C. 10 μl of the reaction solution was spotted on a glass fiber filter paper having the diameter of 2.1 cm (Whatman), and it was immediately immersed in an ice-cold sodium solution of 5% (w/v) trichloroacetic acid-0.25% (w/v) tungstic acid. It was allowed to stand for 20 minutes and thereafter mildly shaken for 5 minutes. After the filter was shaken again in the same solution for 5 minutes, it was rinsed with ethanol and then dried. The amount of radioactivity bound to the filter was measured using a liquid scintillation counter (Aloka). The amount of enzyme by which 1 pmol/second of L-lysine is taken into ε-poly-L-lysine under the above-described reaction conditions was defined as 1 unit. Specific activity of a protein is represented by unit per 1 mg of the protein. Quantitation of protein was performed using the Bradford method. A calibration curve was made using bovine serum albumin (Wako Pure Chemical Industries, Ltd.).

Question: With `[Ca+2]` [Ca^2+] as the molecule, how does the “Metal ion requirement: enzyme activity on addition of divalent cation” value (“Metal ion requirement: enzyme activity” below) read?
Answer: activated slightly

Question: `[Mg+2]` [Mg^2+] was tested. Which “Metal ion requirement: enzyme activity” value did it give?
Answer: maximal activity

Question: For `[Mn+2]` [Mn^2+], which “Metal ion requirement: enzyme activity” value is on record?
Answer: maximal activity

Same assay, conditions: purified enzyme preparation

Question: With B1 as the molecule, how does the “Optimum pH of synthesis reaction” value read?
Answer: 8.5

These molecules were tested on ε-poly-L-lysine biosynthetic enzyme (assay: adenylation activity of L-lysine and other amino acids by ATP-PPi exchange reaction). Details: 1 mM amino acid; "None" = was not adenylated.
Assay type: biochemical, Streptomyces albulus strain IFO14147
Protocol: The adenylation activity of L-lysine and other amino acids was measured by ATP-PPi exchange reaction. A reaction solution (40 μl), which includes: 1 mM L-lysine or another amino acid; 5 mM MgCl2; 5 mM. ATP; 1 mM DTT; 20% (w/v) glycerol; 0.2% (w/v) NP-40; 0.2 mM sodium diphosphate; 51.8 kBq/ml [32P] sodium diphosphate; 100 mM TAPS-NaOH buffer solution (pH 8.5); and the enzyme, was incubated at 30° C. 1.0 ml of a solution containing 1.2% (w/v) active carbon, 0.1 M sodium diphosphate and 0.35 M perchloric acid was added thereto to terminate the reaction. After the active carbon was washed with pure water, the amount of radioactivity bound to the active carbon was measured using a liquid scintillation counter (Aloka).

Question: With `NCC(O)CCC(N)C(=O)O` (racemic) [DL-5-hydroxylysine] as the molecule, how does the “Substrate specificity: adenylated by the enzyme or not” value read?
Answer: adenylated

Question: `NCCCC[C@@H](N)C(=O)O` [D-lysine] was tested. Which “Substrate specificity: adenylated by the enzyme or not” value did it give?
Answer: adenylated

Question: For `NCC(=O)O` [Gly], which “Substrate specificity: adenylated by the enzyme or not” value is on record?
Answer: None

Question: How did the “Substrate specificity: adenylated by the enzyme or not” value turn out when `C[C@H](N)C(=O)O` [L-Ala] was run?
Answer: None

Question: How did the “Substrate specificity: adenylated by the enzyme or not” value turn out when `N=C(N)NCCC[C@H](N)C(=O)O` [L-Arg] was run?
Answer: None

Question: How did the “Substrate specificity: adenylated by the enzyme or not” value turn out when `NC(=O)C[C@H](N)C(=O)O` [L-Asn] was run?
Answer: None

Question: Which “Substrate specificity: adenylated by the enzyme or not” value does the source give for `N[C@@H](CC(=O)O)C(=O)O` [L-Asp] here?
Answer: None

Question: Which “Substrate specificity: adenylated by the enzyme or not” value does the source give for `N[C@@H](CS)C(=O)O` [L-Cys] here?
Answer: None

Question: `NC(=O)CC[C@H](N)C(=O)O` [L-Gln] was tested. Which “Substrate specificity: adenylated by the enzyme or not” value did it give?
Answer: None

Question: With `N[C@@H](CCC(=O)O)C(=O)O` [L-Glu] as the molecule, how does the “Substrate specificity: adenylated by the enzyme or not” value read?
Answer: None

Question: For `N[C@@H](Cc1c[nH]cn1)C(=O)O` [L-His], which “Substrate specificity: adenylated by the enzyme or not” value is on record?
Answer: None

Question: `CC[C@H](C)[C@H](N)C(=O)O` [L-Ile] was tested. Which “Substrate specificity: adenylated by the enzyme or not” value did it give?
Answer: None

Question: Which “Substrate specificity: adenylated by the enzyme or not” value does the source give for `CC(C)C[C@H](N)C(=O)O` [L-Leu] here?
Answer: None

Question: For `CSCC[C@H](N)C(=O)O` [L-Met], which “Substrate specificity: adenylated by the enzyme or not” value is on record?
Answer: None

Question: `N[C@@H](Cc1ccccc1)C(=O)O` [L-Phe] was tested. Which “Substrate specificity: adenylated by the enzyme or not” value did it give?
Answer: None

Question: With `O=C(O)[C@@H]1CCCN1` [L-Pro] as the molecule, how does the “Substrate specificity: adenylated by the enzyme or not” value read?
Answer: None

Question: Which “Substrate specificity: adenylated by the enzyme or not” value does the source give for `N[C@@H](CO)C(=O)O` [L-Ser] here?
Answer: None

Question: For `C[C@@H](O)[C@H](N)C(=O)O` [L-Thr, L-threonine], which “Substrate specificity: adenylated by the enzyme or not” value is on record?
Answer: None

Question: With `N[C@@H](Cc1c[nH]c2ccccc12)C(=O)O` [L-Trp] as the molecule, how does the “Substrate specificity: adenylated by the enzyme or not” value read?
Answer: None

Question: For `N[C@@H](Cc1ccc(O)cc1)C(=O)O` [L-Tyr], which “Substrate specificity: adenylated by the enzyme or not” value is on record?
Answer: None

Question: How did the “Substrate specificity: adenylated by the enzyme or not” value turn out when `CC(C)[C@H](N)C(=O)O` [L-Val] was run?
Answer: None

Question: Which “Substrate specificity: adenylated by the enzyme or not” value does the source give for `NCCOC[C@H](N)C(=O)O` [O-(2-aminoethyl)-L-serine] here?
Answer: adenylated

Question: For `NCCSC[C@H](N)C(=O)O` [S-(2-aminoethyl)-L-cysteine], which “Substrate specificity: adenylated by the enzyme or not” value is on record?
Answer: adenylated

Same assay, conditions: activity to L-lysine regarded as 100%; FIG. 8

Question: With `NCCCC[C@H](N)C(=O)O` [L-lysine] as the molecule, how does the “Relative activity in amino acid activation (adenylation) reaction” value read?
Answer: 100%

The molecules below were run on Streptomyces albulus (assay: minimum growth inhibitory concentration against the bacterium in a M9 minimum medium). Details: i.e. minimum concentration to inhibit aspartokinase.
Assay type: cell-based

Question: Which MIC does the source give for `C[C@@H](O)[C@H](N)C(=O)O` [L-Thr, L-threonine] here?
Answer: 16 mM (≈ 1910 µg/mL)

Question: With `NCCSC[C@H](N)C(=O)O` [S-(2-aminoethyl)-L-cysteine] as the molecule, how does the MIC read?
Answer: 8 mM (≈ 1310 µg/mL)

Each molecule was assayed on Streptomyces albulus (assay: Microbial production of heteropolyamino acid by viable bacterium (LC-MS)). Details: 8 mM analog, 16 mM L-threonine, L-lysine; pH 4.2, 30° C., 48 hours; FIG. 10.
Assay type: cell-based
Protocol: A bacterium of Streptomyces albulus, which was obtained by culturing in a M3G medium (Example 1) at 30° C. for 36 hours, was washed with 100 mM citrate buffer solution (pH 4.2) twice. The washed bacterium obtained from 100 ml of culture solution was suspended in a reaction solution for bacterium consisting of 50 ml of 5% glucose, 1% ammonium sulfate, 8 mM S-(2-aminoethyl)-L-cysteine, 16 mM L-threonine (the concentration of each of the amino acids corresponds to a minimum growth inhibitory concentration against the bacterium in a M9 minimum medium, i.e., a minimum concentration to inhibit aspartokinase which is the key enzyme for L-lysine biosynthesis), and 100 mM citrate buffer solution (pH 4.2) containing a given amount of L-lysine, and it was subjected to shaking culture at 30° C. for 48 hours. After the completion of culture, polyamino acid contained in the culture supernatant collected by centrifugation was subjected to LC-MS analysis using the method of Example 1 (paragraph [0091]).

Question: For `NCCSC[C@H](N)C(=O)O` [S-(2-aminoethyl)-L-cysteine], which “Analog taken into the polylysine molecule by viable bacterium (heteropolyamino acid)” value is on record?
Answer: taken into the polylysine molecule

The molecules below were run on ε-poly-L-lysine biosynthetic enzyme (assay: adenylation activity of L-lysine and other amino acids by ATP-PPi exchange reaction). Details: nucleotide in place of ATP.
Assay type: biochemical, Streptomyces albulus strain IFO14147

Question: Which “Nucleotide specificity: activation of substrate amino acids” value (“Nucleotide specificity: activation” below) does the source give for `Nc1ncnc2c1ncn2[C@@H]1O[C@H](COP(=O)(O)OP(=O)(O)OP(=O)(O)O)[C@@H](O)[C@H]1O` [ATP] here?
Answer: ATP-specific

Question: For `Nc1ccn([C@@H]2O[C@H](COP(=O)(O)OP(=O)(O)OP(=O)(O)O)[C@@H](O)[C@H]2O)c(=O)n1` [CTP], which “Nucleotide specificity: activation” value is on record?
Answer: not activated

Question: How did the “Nucleotide specificity: activation” value turn out when `Nc1nc2c(ncn2[C@@H]2O[C@H](COP(=O)(O)OP(=O)(O)OP(=O)(O)O)[C@@H](O)[C@H]2O)c(=O)[nH]1` [GTP] was run?
Answer: not activated

Question: How did the “Nucleotide specificity: activation” value turn out when `O=c1ccn([C@@H]2O[C@H](COP(=O)(O)OP(=O)(O)OP(=O)(O)O)[C@@H](O)[C@H]2O)c(=O)[nH]1` [UTP] was run?
Answer: not activated
